Results as given in patent US12421535B2, “Biochemically produced sandalwood oil” (FIRMENICH SA, priority 2019, dated 2025).

Legend:
[1] = system: ticks (Ixodes ricinus); test: Tick repellency, adapted Warm Plate assay; assay type: in vivo
Procedure: The repellent effect was determined on ticks (Ixodes ricinus) using an adaptation of the Warm Plate assay as defined in Kröber T, Bourquin M, Guerin P M. A standardised in vivo and in vitro test method for evaluating tick repellents. Pesticide Biochemistry and Physiology. 2013; 107(2):160-168, adapted in reducing the size of the arena and adding a controlled temperature and humid air flow to the set-up.

[2] = system: NHDF; test: Anti-inflammatory test, cytokine release (ELISA), LPS-challenged fibroblasts; assay type: cell-based, human; conditions: LPS 0.5 ug/ml
Procedure: (§1) Monolayer cultures of Normal Human foreskin-derived Dermal Fibroblasts (NHDFs; ATCC, CRL-2522) were used for the anti-inflammatory study. The cells were grown in Dulbecco's Modified Eagle Medium (DMEM, Gibco/Life Technologies, 31885) supplemented with 10% of Foetal Bovine Serum (FBS, Gibco/Life Technologies, 10270) and antibiotics (penicillin/streptomycin, Gibco/Life Technologies, 15140). Monolayer cultures of Normal Human Epidermal Keratinocytes (NHEKs; Lonza, 00192906) were used for the anti-inflammatory study. The cells were grown in Epilife medium containing gentamycin and HKGS (Human Keratinocyte Growth Supplement).
(§2) The cells were maintained in a humidified incubator at 37° C. with a 5% CO2 atmosphere for the indicated treatment periods before performing metabolic, cytokine and gene expression assays.
(§3) Both NHEK and NHDF cell types were cultured in 24-well plates for 24 h in complete medium before being exposed to the test and reference items. Test compositions were applied on the cells 2 h before the 24 h-challenge with pro-inflammatory agents (see table below). Each sample was compared to solvent control conditions. At the end of treatment, all the supernatants were collected and stored at −20° C. until further use in specific ELISA assays for the quantification of the extracellular release of IL-8, IL-6, TNF-α, MCP-1 and CXCL5, based on a standard curve, according to the kits supplier's specifications.
(§4) Sandalwood oil of the invention was tested at 20 μg/ml on both keratinocytes and fibroblasts, in a comparison with S. album essential oil. Keratinocytes and fibroblasts were cultivated under conditions that stimulate the onset of inflammation. After induction of an inflammation state and test compounds application, cell culture supernatants were collected for further ELISA quantification. The ability of the ingredients in reducing the production of selected inflammation markers (MCP-1, CXCL5, IL-6, IL-8 and TNFalpha for NHEK only) was then measured by ELISA (Enzyme-Linked ImmunoSorbent Assay), a biochemical assay commonly used to quantify substances.

[3] = system: NHEK; test: Anti-inflammatory test, cytokine release (ELISA), keratinocytes challenged with TNFα or PMA + A23187; assay type: cell-based, human; conditions: for IL-6 % Reduction (vs A23187/EtOH) / IL-6 % Stimulation (vs Untreated) / IL-8 % Reduction (vs PMA + A23187/EtOH) / IL-8 % Stimulation (vs Untreated) / TNFα % Reduction (vs PMA + A23187/EtOH) / TNFα % Stimulation (vs Untreated): PMA 10 ng/ml + A23187 2 uM; for CXCL-5 % Reduction (vs TNFa/EtOH) / CXCL-5 % Stimulation (vs Untreated) / MCP-1 % Reduction (vs TNFa/EtOH) / MCP-1 % Stimulation (vs Untreated): TNFa 50 ng/ml
Procedure: as §1, §2, §3, §4

[4] = system: Reconstructed Human Epidermis (RHE) mimicking sensitive skin; test: Protein expression (immuno-fluorescence) in RHE model mimicking sensitive skin; assay type: cell-based; conditions: Cytokine Mix + solvent, 10 uM, 48 h, untreated = 100
Procedure: Human epidermis was reconstituted in vitro as described previously. […] Sandalwood oil of the invention was diluted at 20 μg/ml and 40 μg/ml in culture medium and added together with the cytokine cocktail during the same 48 h. The reference compound GW3965 (10 μM), a synthetic nonsteroidal liver X receptor (LXR) agonist was applied in the culture medium for 48 h as well. Protein levels of loricrin, involucrin and HAS3 were quantified at the end of the treatments by immuno-fluorescence. One section of each sample was dewaxed and rehydrated and the slides were incubated in the presence of the primary antibody specific for each of the 3 target proteins. Fluorescein-conjugated secondary antibodies were then used to detect the primary antibodies. DAPI Slowfade Diamond was used to detect the nuclei of the cells.

[5] = system: NHEKs keratinocytes; test: Cytotoxicity MTS assay, NHEKs under PMA/calcium ionophore or TNF-α challenge; assay type: cell-based, human; conditions: SDS 0.008%, 26 h
Procedure: (§5) A preliminary study was performed in order to determine the non-cytotoxic working concentrations for both the sandalwood oil of the invention and a reference sandalwood oil. The cell viability was evaluated using the standard MTS assay (3-(4,5-dimethythiazol-2-yl)-5-(3-carboxy-methoxyphenyl)-2-(4-sulfophenyl)-2H-tetrazolium) after treatment with the test ingredients (160-80-40-20-10 μg/ml, tested in triplicate).
(§6) The test was performed both under basal conditions (i.e. without pro-inflammatory challenge) and pro-inflammatory stimuli for either 24 h-72 h or 26 h, respectively. Cells were seeded in 24-wells plates with complete medium, 24 h before treatment.
(§7) Test ingredients were solubilized in solvent (DMSO or ethanol) and applied to the culture medium of cells 2 hours prior to the pro-inflammatory challenge (when required). SDS at 0.008% or 0.08% was used as cytotoxicity positive control to validate the experiment on NHEKs keratinocytes or NHDFs fibroblasts, respectively.
(§8) In order to ensure experiments would be carried out with test composition concentrations that are non-cytotoxic, a cytotoxicity study was performed on NHEK and NHDF after 26 h of treatment (2 h alone and 24 h under inflammatory challenge with LPS for NHDFs fibroblasts and PMA/calcium ionophore or TNF-α for NHEKs). […]

[6] = system: NHDFs fibroblasts; test: Cytotoxicity MTS assay, NHDFs under LPS challenge; assay type: cell-based, human; conditions: SDS 0.08%, 26 h
Procedure: as §5, §6, §7, §8

[7] = system: Reconstructed Human Epidermis (RHE); test: Permeability of Reconstructed Human Epidermis, biotin diffusion; assay type: cell-based

CCCCN(CCC(=O)OCC)C(C)=O [IR3535, Ethyl butylacetylaminopropionate]
% of affected ticks ([1]; 0.016 mg/mL): 0%
% of affected ticks ([1]; 0.4 mg/mL): 33%
% of affected ticks ([1]; 10 mg/mL): 56%

CCN(CC)C(=O)c1cccc(C)c1 [DEET, N,N-diethyl-meta-toluamide]
% of affected ticks ([1]; 0.016 mg/mL): 11%
% of affected ticks ([1]; 0.4 mg/mL): 20%
% of affected ticks ([1]; 10 mg/mL): 81%

CC(C)Cc1ccc(C(C)C(=O)O)cc1 (centres unmarked) [Ibuprofen]
CXCL-5 % Reduction (vs LPS/EtOH) ([2]; 100 uM): −19%
CXCL-5 % Stimulation (vs Untreated) ([2]; 100 uM): 2929%
IL-6 % Reduction (vs LPS/EtOH) ([2]; 100 uM): −24%
IL-6 % Stimulation (vs Untreated) ([2]; 100 uM): 16853%
IL-8 % Reduction (vs LPS/EtOH) ([2]; 100 uM): −14%
IL-8 % Stimulation (vs Untreated) ([2]; 100 uM): 11037%
MCP-1 % Reduction (vs LPS/EtOH) ([2]; 100 uM): −4%
MCP-1 % Stimulation (vs Untreated) ([2]; 100 uM): 1342%
CXCL-5 % Reduction (vs LPS/EtOH) ([2]; 500 uM): −39%
CXCL-5 % Stimulation (vs Untreated) ([2]; 500 uM): 2216%
IL-6 % Reduction (vs LPS/EtOH) ([2]; 500 uM): −46%
IL-6 % Stimulation (vs Untreated) ([2]; 500 uM): 11977%
IL-8 % Reduction (vs LPS/EtOH) ([2]; 500 uM): −36%
IL-8 % Stimulation (vs Untreated) ([2]; 500 uM): 8242%
MCP-1 % Reduction (vs LPS/EtOH) ([2]; 500 uM): −32%
MCP-1 % Stimulation (vs Untreated) ([2]; 500 uM): 950%
IL-6 % Reduction (vs A23187/EtOH) ([3]; 100 uM): −24%
IL-6 % Stimulation (vs Untreated) ([3]; 100 uM): 462%
IL-8 % Reduction (vs PMA + A23187/EtOH) ([3]; 100 uM): −19%
IL-8 % Stimulation (vs Untreated) ([3]; 100 uM): 16034%
TNFα % Reduction (vs PMA + A23187/EtOH) ([3]; 100 uM): −29%
TNFα % Stimulation (vs Untreated) ([3]; 100 uM): 55645%
IL-6 % Reduction (vs A23187/EtOH) ([3]; 500 uM): −67%
IL-6 % Stimulation (vs Untreated) ([3]; 500 uM): 202%
IL-8 % Reduction (vs PMA + A23187/EtOH) ([3]; 500 uM): −39%
IL-8 % Stimulation (vs Untreated) ([3]; 500 uM): 12190%
TNFα % Reduction (vs PMA + A23187/EtOH) ([3]; 500 uM): −85%
TNFα % Stimulation (vs Untreated) ([3]; 500 uM): 12099%
secretion levels of mediators of inflammation ([3]; PMA + A23187 or TNF-α, dexamethasone with the exception of CXCL-5): reduced significantly
CXCL-5 % Reduction (vs TNFa/EtOH) ([3]; 100 uM): −22%
CXCL-5 % Stimulation (vs Untreated) ([3]; 100 uM): 337%
MCP-1 % Reduction (vs TNFa/EtOH) ([3]; 100 uM): −18%
MCP-1 % Stimulation (vs Untreated) ([3]; 100 uM): 2471%
CXCL-5 % Reduction (vs TNFa/EtOH) ([3]; 500 uM): −47%
CXCL-5 % Stimulation (vs Untreated) ([3]; 500 uM): 229%
MCP-1 % Reduction (vs TNFa/EtOH) ([3]; 500 uM): −63%
MCP-1 % Stimulation (vs Untreated) ([3]; 500 uM): 1126%

O=C(O)Cc1cccc(OCCCN(Cc2cccc(C(F)(F)F)c2Cl)CC(c2ccccc2)c2ccccc2)c1 [GW3965]
Hyaluronan synthase 3 (HAS 3) RQ [4]: 106
Involucrin (IVL) RQ [4]: 160

CCCCCCCCCCCCOS(=O)(=O)[O-].[Na+] [SDS]
cell viability [5]: strong decrease in cell viability
cell viability [6]: strong decrease in cell viability
Surface stained*mean intensity/surface area ([7]; 48 h, SDS 0.005%): 103
biotin abundance (% relative to untreated) ([7]; 48 h, SDS 0.005%, versus untreated): 614%
barrier function of epidermis ([7]; SDS at 0.005%, compared to untreated control): reduced the barrier function

CCC(C)OC(=O)N1CCCCC1CCO (centres unmarked) [Picaridin, sec-butyl 2-(2-hydroxyethyl)piperidine-1-carboxylate]
% of affected ticks ([1]; 0.016 mg/mL): 8%
% of affected ticks ([1]; 0.4 mg/mL): 50%
% of affected ticks ([1]; 10 mg/mL): 92%

C[C@@H]1C[C@H]2[C@@H]3CCC4=CC(=O)C=C[C@]4(C)[C@@]3(F)[C@@H](O)C[C@]2(C)[C@@]1(O)C(=O)CO [Dexamethasone]
CXCL-5 % Reduction (vs LPS/EtOH) ([2]; 10 uM): 77%
CXCL-5 % Stimulation (vs Untreated) ([2]; 10 uM): 6414%
IL-6 % Reduction (vs LPS/EtOH) ([2]; 10 uM): −70%
IL-6 % Stimulation (vs Untreated) ([2]; 10 uM): 6606%
IL-8 % Reduction (vs LPS/EtOH) ([2]; 10 uM): −39%
IL-8 % Stimulation (vs Untreated) ([2]; 10 uM): 7738%
MCP-1 % Reduction (vs LPS/EtOH) ([2]; 10 uM): −23%
MCP-1 % Stimulation (vs Untreated) ([2]; 10 uM): 1067%
IL-6 % Reduction (vs A23187/EtOH) ([3]; 10 uM): −55%
IL-6 % Stimulation (vs Untreated) ([3]; 10 uM): 275%
IL-8 % Reduction (vs PMA + A23187/EtOH) ([3]; 10 uM): −25%
IL-8 % Stimulation (vs Untreated) ([3]; 10 uM): 14801%
TNFα % Reduction (vs PMA + A23187/EtOH) ([3]; 10 uM): −57%
TNFα % Stimulation (vs Untreated) ([3]; 10 uM): 33869%
CXCL-5 % Reduction (vs TNFa/EtOH) ([3]; 10 uM): 251%
CXCL-5 % Stimulation (vs Untreated) ([3]; 10 uM): 1525%
MCP-1 % Reduction (vs TNFa/EtOH) ([3]; 10 uM): −53%
MCP-1 % Stimulation (vs Untreated) ([3]; 10 uM): 1432%
